# “And” between values parts separate entries of the source, which are not always exact repeats. Equal values may be shown once. Toxic doses and inconclusive results are not listed.
# Test system: CD2F1 mice, L1210 leukemia ip, survival T/C
# Assay: NCI In Vivo Anticancer Drug Screen. Data for tumor model L1210 Leukemia (intraperitoneal) in CD2F1 (CDF1) mice
# Conditions: higher = longer survival
# Summary of the method: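 Transplantable tumor in mice; compound-treated vs vehicle-treated groups. Read-out = treated/control ratio of the measured endpoint.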
# [1] = endpoint: mean survival time, dose: 100.0 mg/kg/injection, schedule: Q01DX009 (ip), vehicle: saline with Tween-80
# [2] = endpoint: mean survival time, dose: 100.0 mg/kg/injection, schedule: Q04DX003 (ip), vehicle: saline with Tween-80
# [3] = endpoint: mean survival time, dose: 200.0 mg/kg/injection, schedule: Q01DX009 (ip), vehicle: saline with Tween-80
# [4] = endpoint: mean survival time, dose: 400.0 mg/kg/injection, schedule: Q01DX009 (ip), vehicle: saline with Tween-80
smiles,measurement,setting,value
OCC1OC(n2cnc3c(=S)nc[nH]c32)C(O)C1O (configuration not stated),T/C,"endpoint: mean survival time, dose: 75.0 mg/kg/injection, schedule: Q01DX005 (ip), vehicle: saline",104 % of control
same,T/C,"endpoint: mean survival time, dose: 75.0 mg/kg/injection, schedule: Q01DX009 (ip), vehicle: saline",107 % of control
same,T/C,"endpoint: mean survival time, dose: 75.0 mg/kg/injection, schedule: Q01DX009 (oral), vehicle: saline",97 % of control
same,T/C,"endpoint: mean survival time, dose: 100.0 mg/kg/injection, schedule: Q01DX005 (ip), vehicle: saline",122 % of control
same,T/C,"endpoint: mean survival time, dose: 100.0 mg/kg/injection, schedule: Q01DX007 (ip), vehicle: Klucel (hydroxypropylcellulose) (HPC)",115 % of control
same,T/C,"endpoint: mean survival time, dose: 100.0 mg/kg/injection, schedule: Q01DX007 (ip), vehicle: saline",152 % of control
same,T/C,"endpoint: mean survival time, dose: 100.0 mg/kg/injection, schedule: Q01DX009 (ip), vehicle: Klucel (hydroxypropylcellulose) (HPC)",118 % of control
same,T/C,"endpoint: mean survival time, dose: 100.0 mg/kg/injection, schedule: Q01DX009 (ip), vehicle: saline",154 % of control
same,T/C,"endpoint: mean survival time, dose: 100.0 mg/kg/injection, schedule: Q03DX003 (ip), vehicle: Klucel (hydroxypropylcellulose) (HPC)",95 % of control
same,T/C,"endpoint: mean survival time, dose: 100.0 mg/kg/injection, schedule: Q04DX003 (ip), vehicle: Klucel (hydroxypropylcellulose) (HPC)",102 % of control
same,T/C,"endpoint: mean survival time, dose: 100.0 mg/kg/injection, schedule: Q04DX003 (ip), vehicle: saline",113 % of control
same,T/C,"endpoint: mean survival time, dose: 112.0 mg/kg/injection, schedule: Q01DX010 (ip), vehicle: saline",110 % of control
same,T/C,"endpoint: mean survival time, dose: 150.0 mg/kg/injection, schedule: Q01DX005 (ip), vehicle: saline",107 % of control
same,T/C,"endpoint: mean survival time, dose: 150.0 mg/kg/injection, schedule: Q01DX009 (ip), vehicle: saline",116 % of control
same,T/C,"endpoint: mean survival time, dose: 150.0 mg/kg/injection, schedule: Q01DX009 (oral), vehicle: saline",98 % of control
same,T/C,"endpoint: mean survival time, dose: 200.0 mg/kg/injection, schedule: Q01DX007 (ip), vehicle: saline",157 % of control
same,T/C,"endpoint: mean survival time, dose: 200.0 mg/kg/injection, schedule: Q01DX009 (ip), vehicle: saline",179 % of control
same,T/C,"endpoint: mean survival time, dose: 200.0 mg/kg/injection, schedule: Q03DX003 (ip), vehicle: Klucel (hydroxypropylcellulose) (HPC)",102 % of control
same,T/C,"endpoint: mean survival time, dose: 200.0 mg/kg/injection, schedule: Q03DX003 (ip), vehicle: saline",150 % of control
same,T/C,"endpoint: mean survival time, dose: 200.0 mg/kg/injection, schedule: Q04DX003 (ip), vehicle: Klucel (hydroxypropylcellulose) (HPC)",100 % of control
same,T/C,"endpoint: mean survival time, dose: 200.0 mg/kg/injection, schedule: Q04DX003 (ip), vehicle: saline",150 % of control
same,T/C,"endpoint: mean survival time, dose: 240.0 mg/kg/injection, schedule: Q01DX005 (ip), vehicle: saline",164 % of control
same,T/C,"endpoint: mean survival time, dose: 300.0 mg/kg/injection, schedule: Q01DX002 (sc), vehicle: saline",109 % of control
same,T/C,"endpoint: mean survival time, dose: 300.0 mg/kg/injection, schedule: Q01DX009 (oral), vehicle: saline",105 % of control
same,T/C,"endpoint: mean survival time, dose: 300.0 mg/kg/injection, schedule: Q04DX003 (ip), vehicle: saline",108 % of control
same,T/C,"endpoint: mean survival time, dose: 400.0 mg/kg/injection, schedule: Q01DX007 (ip), vehicle: saline",104 % of control
same,T/C,"endpoint: mean survival time, dose: 400.0 mg/kg/injection, schedule: Q01DX009 (ip), vehicle: saline",116 % of control
same,T/C,"endpoint: mean survival time, dose: 400.0 mg/kg/injection, schedule: Q03DX003 (ip), vehicle: Klucel (hydroxypropylcellulose) (HPC)",111 % of control
same,T/C,"endpoint: mean survival time, dose: 400.0 mg/kg/injection, schedule: Q03DX003 (ip), vehicle: saline",154 % of control
same,T/C,"endpoint: mean survival time, dose: 400.0 mg/kg/injection, schedule: Q04DX003 (ip), vehicle: Klucel (hydroxypropylcellulose) (HPC)",111 % of control
same,T/C,"endpoint: mean survival time, dose: 400.0 mg/kg/injection, schedule: Q04DX003 (ip), vehicle: saline",175 % of control
same,T/C,"endpoint: mean survival time, dose: 480.0 mg/kg/injection, schedule: Q01DX005 (ip), vehicle: saline",156 % of control
same,T/C,"endpoint: mean survival time, dose: 600.0 mg/kg/injection, schedule: Q01DX001 (ip), vehicle: saline",97 % of control
same,T/C,"endpoint: mean survival time, dose: 600.0 mg/kg/injection, schedule: Q01DX002 (ip), vehicle: saline",104 % of control
same,T/C,"endpoint: mean survival time, dose: 600.0 mg/kg/injection, schedule: Q01DX002 (sc), vehicle: saline",116 % of control
same,T/C,"endpoint: mean survival time, dose: 600.0 mg/kg/injection, schedule: Q01DX009 (oral), vehicle: saline",97 % of control
same,T/C,"endpoint: mean survival time, dose: 600.0 mg/kg/injection, schedule: Q03HX008 (ip), vehicle: saline",119 % of control
same,T/C,"endpoint: mean survival time, dose: 600.0 mg/kg/injection, schedule: Q03HX016 (ip), vehicle: saline",121 % of control
same,T/C,"endpoint: mean survival time, dose: 600.0 mg/kg/injection, schedule: Q04DX003 (ip), vehicle: saline",114 % of control
same,T/C,"endpoint: mean survival time, dose: 600.0 mg/kg/injection, schedule: Q08DX002 (ip), vehicle: saline",104 % of control
same,T/C,"endpoint: mean survival time, dose: 900.0 mg/kg/injection, schedule: Q01DX002 (ip), vehicle: saline",118 % of control
same,T/C,"endpoint: mean survival time, dose: 1200.0 mg/kg/injection, schedule: Q01DX001 (ip), vehicle: saline",97 % of control
same,T/C,"endpoint: mean survival time, dose: 1200.0 mg/kg/injection, schedule: Q01DX002 (ip), vehicle: saline",116 % of control
same,T/C,"endpoint: mean survival time, dose: 1200.0 mg/kg/injection, schedule: Q01DX009 (ip), vehicle: saline",113 % of control
same,T/C,"endpoint: mean survival time, dose: 1200.0 mg/kg/injection, schedule: Q03HX016 (ip), vehicle: saline",154 % of control
same,T/C,"endpoint: mean survival time, dose: 1200.0 mg/kg/injection, schedule: Q03HX024 (ip), vehicle: saline",155 % of control and 158 % of control
same,T/C,"endpoint: mean survival time, dose: 1200.0 mg/kg/injection, schedule: Q08DX002 (ip), vehicle: saline",115 % of control
same,T/C,"endpoint: mean survival time, dose: 2400.0 mg/kg/injection, schedule: Q01DX001 (ip), vehicle: saline",98 % of control
same,T/C,"endpoint: mean survival time, dose: 2400.0 mg/kg/injection, schedule: Q03HX016 (ip), vehicle: saline",156 % of control
same,T/C,"endpoint: median survival time, dose: 40.0 mg/kg/injection, schedule: Q01DX009 (ip), vehicle: saline",114 % of control and 122 % of control
same,T/C,"endpoint: median survival time, dose: 160.0 mg/kg/injection, schedule: Q01DX009 (ip), vehicle: saline",155 % of control and 185 % of control
same,T/C,"endpoint: median survival time, dose: 320.0 mg/kg/injection, schedule: Q01DX009 (ip), vehicle: saline",185 % of control
same,T/C,"endpoint: median survival time, dose: 400.0 mg/kg/injection, schedule: Q01DX005 (ip), vehicle: water",150 % of control
O=C(Nc1ccc(Br)cc1)c1ccccc1,T/C,[1],107 % of control
same,T/C,[2],102 % of control
same,T/C,[3],94 % of control
same,T/C,"endpoint: mean survival time, dose: 200.0 mg/kg/injection, schedule: Q04DX003 (ip), vehicle: saline with Tween-80",102 % of control
same,T/C,[4],91 % of control
same,T/C,"endpoint: mean survival time, dose: 400.0 mg/kg/injection, schedule: Q04DX003 (ip), vehicle: saline with Tween-80",100 % of control
COc1cccc(C(=O)O)c1OC,T/C,[1],109 % of control
same,T/C,[3],94 % of control
same,T/C,[4],102 % of control
CCCCCCCCCCCCOCC[N+](CCO)(CCO)Cc1ccccc1,T/C,"endpoint: mean survival time, dose: 0.25 mg/kg/injection, schedule: Q01DX009 (ip), vehicle: saline",91 % of control
same,T/C,"endpoint: mean survival time, dose: 0.5 mg/kg/injection, schedule: Q01DX009 (ip), vehicle: saline",107 % of control
same,T/C,"endpoint: mean survival time, dose: 1.0 mg/kg/injection, schedule: Q01DX009 (ip), vehicle: saline",90 % of control
same,T/C,"endpoint: mean survival time, dose: 5.0 mg/kg/injection, schedule: Q04DX003 (ip), vehicle: saline",102 % of control
same,T/C,"endpoint: mean survival time, dose: 10.0 mg/kg/injection, schedule: Q04DX003 (ip), vehicle: saline",101 % of control
same,T/C,"endpoint: mean survival time, dose: 20.0 mg/kg/injection, schedule: Q04DX003 (ip), vehicle: saline",93 % of control
Cc1noc(N)c1N,T/C,"endpoint: median survival time, dose: 12.5 mg/kg/injection, schedule: Q01DX009 (ip), vehicle: water",98 % of control
same,T/C,"endpoint: median survival time, dose: 25.0 mg/kg/injection, schedule: Q01DX009 (ip), vehicle: water",100 % of control
same,T/C,"endpoint: median survival time, dose: 50.0 mg/kg/injection, schedule: Q01DX009 (ip), vehicle: water",100 % of control
same,T/C,"endpoint: median survival time, dose: 100.0 mg/kg/injection, schedule: Q01DX009 (ip), vehicle: water",113 % of control and 104 % of control and 110 % of control
same,T/C,"endpoint: median survival time, dose: 150.0 mg/kg/injection, schedule: Q01DX009 (ip), vehicle: water",109 % of control
C=CCNC(=O)C[n+]1cccc(C(=O)Nc2ccccc2)c1,T/C,[2],97 % of control
CC(=O)Oc1[nH]c(=O)c2cccc3c2c1CCC3,T/C,"endpoint: median survival time, dose: 25.0 mg/kg/injection, schedule: Q01DX009 (ip), vehicle: saline with Tween-80",106 % of control
same,T/C,"endpoint: median survival time, dose: 50.0 mg/kg/injection, schedule: Q01DX009 (ip), vehicle: saline with Tween-80",104 % of control
same,T/C,"endpoint: median survival time, dose: 100.0 mg/kg/injection, schedule: Q01DX009 (ip), vehicle: saline with Tween-80",100 % of control and 104 % of control
same,T/C,"endpoint: median survival time, dose: 200.0 mg/kg/injection, schedule: Q01DX009 (ip), vehicle: saline with Tween-80",97 % of control and 103 % of control
same,T/C,"endpoint: median survival time, dose: 400.0 mg/kg/injection, schedule: Q01DX009 (ip), vehicle: saline with Tween-80",97 % of control and 108 % of control
O=C1OC(=O)C2CCCC1C2,T/C,"endpoint: mean survival time, dose: 100.0 mg/kg/injection, schedule: Q01DX001 (ip), vehicle: saline",105 % of control
same,T/C,"endpoint: mean survival time, dose: 200.0 mg/kg/injection, schedule: Q01DX001 (ip), vehicle: saline",105 % of control
same,T/C,"endpoint: mean survival time, dose: 400.0 mg/kg/injection, schedule: Q01DX001 (ip), vehicle: saline",100 % of control

# Source: PubChem BioAssay AID256 (DTP/NCI, 2004)
